Patent US10123985B2, “Therapeutic strategies for treating mitochondrial disorders” (Whitehead Institute for Biomedical Research, priority 2015, dated 2018)
Entries after “also recorded” stand apart in the source; their conditions may differ.

Tests used:
[1] = test system: 143B CytB cells; assay: Proliferation assay of respiration-incompetent 143B CytB cybrid cells; format: cell-based; conditions: media supplemented with the substance; no pyruvate unless tested, uridine present
Protocol: FL5.12 cells were cultured in the same medium and supplemented with 5 μg/mL recombinant mouse IL-3 (R&D Systems). […] All cells incubated at 37° C. with 5% CO2.
Adherent cell lines growing in log phase were trypsinized, counted, and plated onto 6 well dishes (Corning) in 2 mL complete DMEM and incubated overnight. […] The following day, one plate of cells was counted to determine the initial cell count at the time of treatment. Cells were washed 2 times with 2 mL phosphate buffered saline (PBS) and 4 mL media premixed with the indicated treatments was added. FL5.12 cells, a suspension cell line, were washed 2 times in PBS and added directly to media containing the indicated treatments and 5 μg/mL recombinant mouse IL-3. Proliferation rate assay media was DMEM without pyruvate containing 10% dialyzed FBS, penicillin-streptomycin, and 0.1 mg/mL uridine, unless otherwise noted. […] Cells were counted using Cellometer Auto T4 Plus Cell Counter (Nexcelom Bioscience). Proliferation rate was determined using the following formula: Proliferation Rate (Doublings per day)=(log2(Final cell count (day 5)/Initial cell count (day 1))/4 (days)

[2] = test system: 143B CytB cells; assay: Cell cycle distribution by propidium iodide flow cytometry; format: cell-based; conditions: 143B CytB cells, 100 μM adenine, 78 hours
Protocol: 143B CytB cells were incubated in untreated media or media containing AKB or 100 μM adenine for 78 hours before being washed with PBS, trypsinized, pelleted, and resuspended in 500 μL PBS. Cells were fixed by adding 4.5 mL 70% ethanol and incubated at 4° C. overnight. The following day cells were pelleted and resuspended in 1 mL PBS+0.1% (v/v) Triton X-100. RNase A and then propidium iodide (PI) were added to 0.2 mg/mL and 20 μg/mL, respectively. Samples were incubated at 37° C. for 15 minutes and filtered into a flow cytometry tube. DNA content was measured by flow cytometry (BD FACS Canto II) and analyzed (FACS Diva Software).

[3] = test system: Jurkat cells; assay: Seahorse oxygen consumption of Jurkat cells; format: cell-based, human; conditions: phenformin (10 μM), wild type and GOT1 null
Protocol: Oxygen consumption of intact cells was measured using an XF24 Extracellular Flux Analyzer (Seahorse Bioscience). For Jurkat cells, seahorse plates were coated with cell TAK (BD, 0.02 mg/ml in […] NaHO3) for 20 minutes to increase adherence of suspension cells. 200,000 cells were then attached to the plate by centrifugation at 2,200 rpm without brakes for 5 min. RPMI 8226 (US biological #9011) assay media was used as previously described (Birsoy et al., 2014). For basal oxygen consumption measurements the cell number was used to normalize.

[4] = test system: Raji lymphoma and KMS-26 multiple myeloma cells; format: cell-based, human; conditions: 5-day treatment
Protocol: […]. Media was changed 24 hours after transfection.

[5] = test system: Jurkat cells; assay: [U-13C]-L-glutamine isotope tracing of aspartate in Jurkat cells; format: cell-based, human; conditions: phenformin (10 μM)
Protocol: (§1) LC/MS analyses were conducted on a QExactive benchtop orbitrap mass spectrometer equipped with an Ion Max source and a HESI II probe, which was coupled to a Dionex UltiMate 3000 UPLC system (Thermo Fisher Scientific, San Jose, Calif.). External mass calibration was performed using the standard calibration mixture every 7 days.
Polar metabolites were extracted using 1 ml of ice-cold 80% methanol with 10 ng/ml valine-d8 as an internal standard. After a 10 min vortex and centrifugation for 10 min at 4° C. at 10,000 g, samples were dried under nitrogen gas. Dried samples were stored at −80° C. and then resuspended in 100 μL water; 1 μl of each sample was injected onto a ZIC-pHILIC 2.1×150 mm (5 μm particle size) column (EMD Millipore). Buffer A was 20 mM ammonium carbonate, 0.1% ammonium hydroxide; buffer B was acetonitrile. […] Relative quantitation of polar metabolites was performed with XCalibur QuanBrowser 2.2 (Thermo Fisher Scientific) using a 5 ppm mass tolerance and referencing an in-house library of chemical standards.

[6] = test system: Jurkat cells; assay: Proliferation assay (Cell Titer Glo, 5 days) of wild type and knock-out Jurkat cells; format: cell-based, human
Protocol: sgRNAs (oligonucleotide sequences are indicated above) were cloned into lentiCRISPR-v1 linearized with BsmBI by Gibson Assembly (NEB). sgRNA expressing vector along with lentiviral packaging vectors Delta-VPR and CMV VSVG were transfected into HEK-293T cells using the XTremeGene 9 transfection reagent (Roche). Similarly, for overexpression cell lines, cDNA vectors along with retroviral packaging vectors gag-pol and CMV VSV-G were transfected into HEK-293T cells. Media was changed 24 hours after transfection.

[7] = test system: Jurkat cells; assay: Metabolite profiling (LC/MS) of Jurkat cells; format: cell-based, human
Protocol: as §1
Polar metabolites were extracted using 1 ml of ice-cold 80% methanol with 10 ng/ml valine-d8 as an internal standard. After a 10 min vortex and centrifugation for 10 min at 4° C. at 10,000 g, samples were dried under nitrogen gas. Dried samples were stored at −80° C. and then resuspended in 100 μL water; 1 μl of each sample was injected onto a ZIC-pHILIC 2.1×150 mm (5 μm particle size) column (EMD Millipore). Buffer A was 20 mM ammonium carbonate, 0.1% ammonium hydroxide; buffer B was acetonitrile. The chromatographic gradient was run at a flow rate of 0.150 ml/min as follows: 0-20 min.: linear gradient from 80% to 20% B; 20-20.5 min.: linear gradient from 20% to 80% B; 20.5-28 min.: hold at 80% B. The mass spectrometer was operated in fullscan, polarity switching mode with the spray voltage set to 3.0 kV, the heated capillary held at 275° C., and the HESI probe held at 350° C. The sheath gas flow was set to 40 units, the auxiliary gas flow was set to 15 units, and the sweep gas flow was set to 1 unit. The MS data acquisition was performed in a range of 70-1000 m/z, with the resolution set at 70,000, the AGC target at 106, and the maximum injection time at 80 msec. Relative quantitation of polar metabolites was performed with XCalibur QuanBrowser 2.2 (Thermo Fisher Scientific) using a 5 ppm mass tolerance and referencing an in-house library of chemical standards.

[8] = GOT1-null Jurkat cells, 24-hour phenformin

Row | SMILES | Proliferation rate of 143B CytB cells [1] | Cell cycle distribution (DNA content) [2] | Oxygen consumption (respiration) of Jurkat cells [3] | Sensitivity of GOT1-null versus wild type Raji and KMS-26 cells to phenformin [4] | Aspartate synthesis from [U-13C]-L-glutamine ([5]; GOT1-null Jurkat cells) | Aspartate synthesis from [U-13C]-L-glutamine ([5]; wild type Jurkat cells) | Proliferation of Jurkat cells ([6]; 0.5 μM phenformin, pyruvate-free RPMI) | Viability and proliferation of GOT1-null versus wild type Jurkat cells ([6]; higher concentrations of phenformin, 5 days) | Proliferation of GOT1-null versus wild type Jurkat cells ([6]; low doses of phenformin, 5 days) | Other amino acids [7, 8] | Reduction of cellular aspartate [7, 8] [fold] | Aspartate level ([7]; MDH1-null Jurkat cells, phenformin (10 μM) 24 hours) | Fall of aspartate levels ([7]; wild type Jurkat cells, 24-hour phenformin) [fold]
1 | Nc1ncnc2nc[nH]c12 [adenine, reference compound] | restored proliferation for one doubling | alleviated the slight accumulation of cells at the S/G2 transition | – | – | – | – | – | – | – | – | – | – | –
2 | [H]/N=C(/N)N/C(=N/[H])NCCc1ccccc1 [phenformin, reference compound] | – | – | suppressed respiration as measured by oxygen consumption; also recorded: inhibits oxygen consumption of wild type and GOT1 null Jurkat cells | GOT1 loss sensitizes various human cell types to phenformin treatment; also recorded: far more sensitive to phenformin than their wild type counterparts | almost no generation of aspartate from labeled glutamine | aspartate is mainly synthesized by reductive metabolism of glutamine in a GOT1-dependent manner; also recorded: aspartate synthesis dropped, and what remained came primarily from reductive glutamine metabolism with almost no contribution from the oxidative pathway | only mildly slowed proliferation | GOT1-null cells die; also recorded: GOT1-null cells arrested and died, while the wild type counterparts did not | inhibited the proliferation of GOT1-null cells to a much greater extent than that of wild type cells | without much effect on other amino acids | ~30 | dropped to the same level as it did in wild type cells | ~3
